Data reported in patent US12453708B2, “Aminonaphthoquinone compounds for treatment and/or prevention of fibrosis diseases” (CALGENT BIOTECHNOLOGY CO., LTD., priority 2015, dated 2025).

What was measured:
[1] = system: TGF-β-induced α-SMA expression in WI-38 cells; test: TGF-β-induced α-SMA expression in WI-38 cells (Western blot); type: cell-based, human; details: WI-38 lung fibroblasts, 0.3, 1, 3 or 10 μM for 30 min before and during incubation with TGF-β (10 ng/mL)
Method: FIGS. 5 (A) and (B) show the effect of L056 on TGF-β-induced α-SMA expression in WI-38 cells. WI-38 lung fibroblasts were incubated with different concentrations of L056 (0.3, 1, 3 or 10 μM) for 30 min before and during incubation for 2 h with TGF-β (10 ng/mL). […] (A), Western blot plot; (B), Quantitative assay of Western blot WI-38 cells, a normal human embryonic lung fibroblast cell line, were obtained from American Type Culture Collection (Manassas, VA). Cells were grown in MEM nutrient mixture, containing 10% FCS, 2 mM L-glutamine, 0.1 mM NEAA, 1 mM sodium pyruvate, 50 U/ml penicillin G, and 100 µg/ml streptomycin, in a humidified 37° C. incubator with 5% CO2 Cells were used between passages 18 and 30 for all experiments. After reaching confluence, cells were seeded onto 6-cm dishes for immunoblotting. Western blot analyses were performed as described previously (Chen B C, Chang Y S, Kang J C, Hsu M J, Sheu J R, Chen T L, et al. Peptidoglycan induces nuclear factor-kappaB activation and cyclooxygenase-2 expression via Ras, Raf-1, and ERK in RAW 264.7 macrophages. J Biol Chem 2004; 279:20889-97). […] The immunoreactivity was detected using enhanced chemiluminescence (ECL) following the manufacturer's instructions. Quantitative data were obtained using a computing densitometer with scientific imaging systems (Kodak, Rochester, NY). […]

[2] = system: CCl4-induced liver fibrosis in mice; test: CCl4-induced liver fibrosis in mice (therapeutic model); type: in vivo, C57BL/6JNarl mice; details: for fibrosis score, Mean ± SEM: day 43
Method: (A) sirius red stain; (B), the inhibition of MPTOL056 on CCl4-induced liver fibrosis. […] C57BL/6JNarl mice (8 weeks) were treated with CCl4 (1 μl/μg/BW, q.w.) or PBS (1 μl/μg/BW, q.w.) by i.p. injection for 6 weeks. MPTOL056 (25, 50 and 100 mg/kg/day, q.d.) and silymarin (200 mg/kg/day, q.d.) were administered orally to CCl4-injected mice from 2 weeks to 6 weeks. On day 43, the mice were sacrificed, and the α-SMA analysis of liver tissue was performed by IHC staining (original magnification, x100) (see FIG. 11). […]

[3] = system: thrombin-induced CTGF expression in WI-38 cells; test: thrombin-induced CTGF expression in WI-38 cells (Western blot); type: cell-based, human; details: WI-38 lung fibroblasts, 0.3, 1, 3 or 10 μM for 30 min before and during 2 h thrombin (1 U/ml)
Method: FIGS. 3 (A) and (B) show the effect of L056 on thrombin-induced CTGF expression in WI-38 cells. WI-38 lung fibroblasts were incubated with different concentrations of L056 (0.3, 1, 3 or 10 μM) for 30 min before and during incubation for 2 h with thrombin (1 U/ml). […] (A), Western blot plot; (B), Quantitative assay of Western blot. WI-38 cells, a normal human embryonic lung fibroblast cell line, were obtained from American Type Culture Collection (Manassas, VA). Cells were grown in MEM nutrient mixture, containing 10% FCS, 2 mM L-glutamine, 0.1 mM NEAA, 1 mM sodium pyruvate, 50 U/ml penicillin G, and 100 µg/ml streptomycin, in a humidified 37° C. incubator with 5% CO2 Cells were used between passages 18 and 30 for all experiments. After reaching confluence, cells were seeded onto 6-cm dishes for immunoblotting. Western blot analyses were performed as described previously (Chen B C, Chang Y S, Kang J C, Hsu M J, Sheu J R, Chen T L, et al. Peptidoglycan induces nuclear factor-kappaB activation and cyclooxygenase-2 expression via Ras, Raf-1, and ERK in RAW 264.7 macrophages. J Biol Chem 2004; 279:20889-97). […] The immunoreactivity was detected using enhanced chemiluminescence (ECL) following the manufacturer's instructions. Quantitative data were obtained using a computing densitometer with scientific imaging systems (Kodak, Rochester, NY). […]

[4] = CCl4 mice, 25 mg (mg/kg/day, q.d., oral, weeks 2 to 6)
[5] = CCl4 mice, 50 mg (mg/kg/day, q.d., oral, weeks 2 to 6)
[6] = CCl4 mice, 100 mg (mg/kg/day, q.d., oral, weeks 2 to 6)

O=C(Nc1ccncc1)c1ccc(CNC2=C(Cl)C(=O)c3ccccc3C2=O)cc1 [Example L056, 4-(((3-chloro-1,4-dioxo-1,4-dihydronaphthalen-2-yl)amino)methyl)-N-(pyridin-4-yl)benzamide]
TGF-β-induced α-SMA expression [1]: significantly inhibited | Efficacy % (reduction of fibrosis score) [2, 4]: 45.00% | fibrosis score, Mean ± SEM [2, 4]: 2.40 ± 0.53 | Efficacy % (reduction of fibrosis score) [2, 5]: 46.67% | fibrosis score, Mean ± SEM [2, 5]: 2.35 ± 0.25 | Efficacy % (reduction of fibrosis score) [2, 6]: 68.33% | fibrosis score, Mean ± SEM [2, 6]: 1.70 ± 0.18 | efficacy in inhibition compared with silymarin ([2]; CCl4 mice, silymarin 200 mg/kg/day, FIG. 10(B)): higher than silymarin | inhibition of CCl4-induced liver fibrosis (in words) ([2]; mice, 25, 50 and 100 mg/kg/day oral, FIG. 10(B)): dose-dependent | thrombin-induced CTGF production/expression [3]: significantly inhibited | thrombin-induced CTGF production/expression ([3]; listed as MPTOL0560): inhibited
